Each structure is given as a SMILES string.

Here are results for two compounds from ChEMBL document CHEMBL1121661, “Synthesis and antitumor activity of a series of sulfone analogues of 1,4-naphthoquinone” (1981).

Assay type in all cases: functional
Experiment [1] has as its system Mus musculus. Description: Percent packed cell volume at 5 (mg/kg)/day.
In experiment [2] the test system is Mus musculus. Description: Effect of compound on Ehrlich ascites carcinoma growth in CF1 mice at 10 mg/kg per day ip survival at day 9; 3/8. To be noted: route intraperitoneal.
The test system of experiment [3] is Mus musculus. Description: Effect of compound on Ehrlich ascites carcinoma growth in CF1 mice at 5 mg/kg per day ip survival at day 9; 5/6. To be noted: route intraperitoneal.
Experiment [4] deals with Mus musculus. Nature of the experiment: Percent packed cell volume at 10 mg/kg per day.
For experiment [5], the system named is Mus musculus. Nature of the experiment: Percent packed cell volume at 10 mg/kg per day per mouse. More on the design: unit not given here.
Experiment [6] deals with Mus musculus. Nature of the experiment: Percent packed cell volume at 5 (mg/kg)/day per mouse.
The test system of experiment [7] is Mus musculus. Description: Percent inhibition of Ehrlich ascites carcinoma growth at 10 mg/kg per day.
For experiment [8], the system named is Mus musculus. Description: Percent inhibition of Ehrlich ascites carcinoma growth at 5 (mg/kg)/day.
The test system of experiment [9] is Mus musculus. Nature of the experiment: Percent inhibition of Ehrlich ascites carcinoma growth at 200 mg/kg per day.
Experiment [10] concerns Mus musculus. Description: Percent packed cell volume at 200 mg/kg per day.
Experiment [11] deals with Mus musculus. Description: Percent packed cell volume at 200 mg/kg per day per mouse.
Experiment [12] concerns Mus musculus. Nature of the experiment: Effect of compound on Ehrlich ascites carcinoma growth in CF1 mice at 200 mg/kg per day ip survival at day 9; 6/6. The settings on record: route intraperitoneal.

The term inhibition in vivo denotes the percentage by which the read-out fell short of the control. Broadly, the Inhibition is the share of the control response that was lost under treatment. In the case of `O=C1C(CO)=CS(=O)(=O)c2ccccc21`, the “%” value in the experiment on Mus musculus [1] was 4.8; in the experiment on Mus musculus [4], 0.7. In addition, the “Survivors at day 9” value in the experiment on Mus musculus [2] amounted to 3; in the experiment with Mus musculus [3] it was 5. Besides, the Volume in the experiment on Mus musculus [5] was 0.4; in the experiment with Mus musculus [6], 0.07. In the experiment with Mus musculus [7], this compound returned an inhibition in vivo at 10 mg/kg/day of 99.3%. Moreover, the Inhibition in the experiment on Mus musculus [8] is on record as 95.6%.

`Sc1ncnc2nc[nH]c12` [MERCAPTOPURINE ANHYDROUS]: the inhibition in vivo at 200 mg/kg/day in the experiment on Mus musculus [9] came out at 99.6%. In addition, the “%” value in the experiment with Mus musculus [10] was 0.3. Moreover, the Volume in the experiment with Mus musculus [11] was 0.7. In the experiment on Mus musculus [12], the “Survivors at day 9” value came out at 6.
